The text below walks through data of US20240261417A1, “SOS1 DEGRADING AGENT AND PREPARATION METHOD THEREFOR AND APPLICATION THEREOF” (SHANGHAI LEADINGTAC PHARMACEUTICAL CO. LTD., priority 2021, published 2024).

For this experiment, the target named is T1, SOS1 protein (Homo sapiens, UniProt Q07889).
T1 sequence (Q07889 1-1333): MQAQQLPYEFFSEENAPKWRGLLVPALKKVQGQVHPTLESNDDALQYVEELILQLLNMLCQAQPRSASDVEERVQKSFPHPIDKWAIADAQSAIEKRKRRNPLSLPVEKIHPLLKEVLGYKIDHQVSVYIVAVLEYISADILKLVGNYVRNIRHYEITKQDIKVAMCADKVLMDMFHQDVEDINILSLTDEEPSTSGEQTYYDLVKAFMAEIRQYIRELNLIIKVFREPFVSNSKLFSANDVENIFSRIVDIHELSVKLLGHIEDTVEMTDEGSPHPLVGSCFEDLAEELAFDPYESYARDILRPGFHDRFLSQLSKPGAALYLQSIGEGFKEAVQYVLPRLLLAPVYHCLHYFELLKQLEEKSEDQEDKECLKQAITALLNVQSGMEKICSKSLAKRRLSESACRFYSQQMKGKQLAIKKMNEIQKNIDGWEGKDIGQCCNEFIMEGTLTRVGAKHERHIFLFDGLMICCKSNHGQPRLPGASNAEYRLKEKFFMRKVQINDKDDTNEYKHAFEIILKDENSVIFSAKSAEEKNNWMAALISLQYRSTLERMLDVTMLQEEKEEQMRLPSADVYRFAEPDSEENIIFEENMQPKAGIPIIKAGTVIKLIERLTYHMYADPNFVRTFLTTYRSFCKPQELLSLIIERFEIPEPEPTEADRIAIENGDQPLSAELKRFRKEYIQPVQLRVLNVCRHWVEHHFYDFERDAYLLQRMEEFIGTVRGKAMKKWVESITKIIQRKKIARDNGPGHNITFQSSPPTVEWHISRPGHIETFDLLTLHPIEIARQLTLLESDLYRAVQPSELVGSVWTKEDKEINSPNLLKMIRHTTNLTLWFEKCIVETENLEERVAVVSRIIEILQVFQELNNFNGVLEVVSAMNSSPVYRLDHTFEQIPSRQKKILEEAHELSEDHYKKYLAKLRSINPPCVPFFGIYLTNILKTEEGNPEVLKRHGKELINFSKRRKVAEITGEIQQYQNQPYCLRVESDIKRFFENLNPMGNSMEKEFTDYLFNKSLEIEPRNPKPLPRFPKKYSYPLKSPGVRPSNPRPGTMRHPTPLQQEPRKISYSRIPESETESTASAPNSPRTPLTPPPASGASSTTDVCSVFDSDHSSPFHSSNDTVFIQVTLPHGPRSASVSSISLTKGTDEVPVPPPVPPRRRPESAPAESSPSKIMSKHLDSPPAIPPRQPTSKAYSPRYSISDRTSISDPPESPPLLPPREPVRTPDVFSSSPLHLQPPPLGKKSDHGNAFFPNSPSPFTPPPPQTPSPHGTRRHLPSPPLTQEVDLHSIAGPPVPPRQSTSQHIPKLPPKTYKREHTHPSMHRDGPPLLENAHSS
The experiment in a line: SOS1 degradation assay (Western blot), NCI-H358 cells. It is filed as cell-based. Set-up: The degradation of SOS1 by the compounds was investigated on KRAS G12C mutant human non-small cell lung cancer cells NCI-H358; host or cells: NCI-H358 (human cancer cell lines). The note with it: SOS1 degradation, NCI-H358 cells, 24 h, Western blot; for DC50: read-out: NCI-H358 (G12C) DC50; for Dmax: read-out: NCI-H358 (G12C) Dmax. On the procedure:
The specific procedures were as follows:
0.95 mL of cells were seeded into each well of a 24-well cell culture plate to achieve a cell density of 5×10^5 cells/well; the cell plate was incubated in an incubator at 37° C. with 5% CO2 overnight. Then 50 μL of the compound solution after dilution was added to each of the wells with the corresponding cells, so that the final concentration of the compound was in a range of 0.03-3000 nM. […] After dosing, the cell plate was incubated in an incubator at 37° C. with 5% CO2 for 24 h. […] After the plate was left to stand on ice for 30 min, the protein lysate in each well was transferred to a 1.5 mL centrifuge tube and centrifuged at 15000 g for 20 min at 4° C. The cell lysate supernatant after centrifugation was cryopreserved at −80° C. for testing and was used for determining the degradation level of the SOS1 protein by a WB method. The concentration of total protein in the cell lysate supernatant was determined using the BCA Protein Quantification Kit (Tiangen, PA115-02).
The concentration of total protein in the cell lysate was determined by BCA. The total protein was adjusted to 0.5 μg/μL with PBS and 5× SDS-PAGE protein loading buffer (Beyotime, P0015L), incubated in a water bath at 100° C. for 15 min, incubated in an ice bath on ice for 5 min, centrifuged at 14000 g for 1 min at 4° C., and mixed well as a loading sample for WB. Protein electrophoresis was performed on a precast gel (KeyGEN, KGMGO10W15) with a loading volume of 10 μL (total protein: 5 μg) using a Tris-MOPS-SDS running solution (Adamas, P1598253) at a constant voltage of 120 V for 55 min. After the electrophoresis, the protein on the gel strip was transferred to a PVDF membrane at a constant current of 250 mA for 65 min. After the membrane transfer, the membrane was incubated in 1× QuickBlock blocking buffer (Beyotime, P0235) for 30 min at room temperature. […] The protein map was subjected to gray value analysis by the chemiluminescence imaging system from Clinx. […] Then the degradation rate was calculated by comparing the gray correction value with the gray correction value of the control group. Then nonlinear curve fitting was performed by GraphPad Prism 8 in the logarithmic concentration-inhibition rate to obtain the DC50 and Dmax values of the compounds.
On the technique in general: In western blotting, separated proteins are transferred to a membrane and probed.

Bounds are passed on as bounds.

The DC50 is the midpoint of the concentration-degradation curve. Broadly, the Dmax is the largest share of the target that was removed. For the molecule `COc1cc2nc(C)nc(N[C@H](C)c3cc(NC(C)=O)cc(C(F)(F)F)c3)c2cc1[C@H]1CC[C@H](C(=O)N2CCN(CC3CCC4(CC3)CCN(C(=O)c3ccc(Cl)c(N5CCC(=O)NC5=O)c3)CC4)CC2)CC1` [Example 17, N-(3-((R)-1-((6-((1R,4R)-4-(4-((3-(4-chloro-3-(2,4-dioxotetrahydropyrimidin-1(2H)-yl)benzoyl)-3-azaspiro[5.5]undecane-9-yl)methyl)piperazine-1-carbonyl)cyclohexyl)-7-methoxy-2-methylquinazolin-4-yl)amino)ethyl)-5-(trifluoromethyl)phenyl)acetamide], the DC50 is 1000 to 10000 nM and the Dmax lay in the range of 30 to 50%.
The matching figures for `COc1cc2nc(C)nc(N[C@H](C)c3cc(-c4ccccc4CN(C)C)cs3)c2cc1[C@H]1CC[C@H](C(=O)N2CCC(CCOCC3CCN(C(=O)c4ccc(Cl)c(N5CCC(=O)NC5=O)c4)CC3)CC2)CC1` [Example 48]: less than 50 nM and 80 to 100%.
Take `COc1cc2nc(C)nc(N[C@H](C)c3cc(N)cc(C(F)(F)F)c3)c2cc1[C@H]1CC[C@H](C(=O)N2CCN(CC3CCN(C(=O)COc4ccc(Cl)c(N5CCC(=O)NC5=O)c4)CC3)CC2)CC1` [Example 37, 1-(5-(2-(4-((4-((1R,4R)-4-(4-(((R)-1-(3-amino-5-(trifluoromethyl)phenyl)ethyl)amino)-7-methoxy-2-methylquinazolin-6-yl)cyclohexane-1-carbonyl)piperazin-1-yl)methyl)piperidin-1-yl)-2-oxoethoxy)-2-chlorophenyl)dihydropyrimidine-2,4(1H,3H)-dione]: the half-maximal degradation concentration (DC50) lay within 1000 to 10000 nM and the Dmax was less than 30%.
In the case of `COc1cc2nc(C)nc(N[C@H](C)c3cc(N)cc(C(F)(F)F)c3)c2cc1C1CCC(C(=O)N2CCN(CC3CCC4(CC3)CCN(C(=O)c3ccc(C5CCC(=O)NC5=O)cc3)CC4)CC2)CC1` (stereo partly drawn) [Example 23, 3-(4-(9-((4-((1R,4R)-4-(4-(((R)-1-(3-amino-5-(trifluoromethyl)phenyl)ethyl)amino)-7-methoxy-2-methylquinazolin-6-yl)cyclohexane-1-carbonyl)piperazin-1-yl)methyl)-3-azaspiro[5.5]undecane-3-carbonyl)phenyl)piperidine-2,6-dione], the “NCI-H358 (G12C) Dmax” value was “B (when 50≤Dmax (%)<80, the level was B)” and the DC50 is less than 50 nM.
As for `COc1cc2nc(C)nc(N[C@H](C)c3cc(N)cc(C(F)(F)F)c3)c2cc1[C@H]1CC[C@H](C(=O)N2CCN(CC3CCC4(CC3)CCN(C(=O)c3cccc(N5CCC(=O)NC5=O)c3)CC4)CC2)CC1` [Example 21, 1-(3-(9-((4-((1R,4R)-4-(4-(((R)-1-(3-amino-5-(trifluoromethyl)phenyl)ethyl)amino)-7-methoxy-2-methylquinazolin-6-yl)cyclohexane-1-carbonyl)piperazin-1-yl)methyl)-3-azaspiro[5.5]undecane-3-carbonyl)phenyl)dihydropyrimidine-2,4(1H,3H)-dione], the DC50 fell in the range of 1000 to 10000 nM and the Dmax lay within 30 to 50%.
With `COc1cc2nc(C)nc(N[C@H](C)c3cc(N)cc(C(F)(F)F)c3)c2cc1[C@H]1CC[C@H](C(=O)N(C)CCOCC#CC2CCN(C(=O)c3ccc(Cl)c(N4CCC(=O)NC4=O)c3)CC2)CC1` [Example 26, (1R,4R)-4-(4-(((R)-1-(3-amino-5-(trifluoromethyl)phenyl)ethyl)amino)-7-methoxy-2-methylquinazolin-6-yl)-N-(2-((3-(1-(4-chloro-3-(2,4-dioxotetrahydropyrimidin-1(2H)-yl)benzoyl)piperidin-4-yl)prop-2-yn-1-yl)oxo)ethyl)-N-methylcyclohexane-1-carboxamide], the “NCI-H358 (G12C) Dmax” value is listed as “D (when Dmax (%)<30, the level was D)” and the DC50 was 1000 to 10000 nM.
